The conditions of series [1]: compared with myristic acid; cited from earlier work.
The next series concerns p60^v-src. Conditions: membrane versus cytosolic fractions; cited from earlier work.
Series [2] has as its target T1, yeast NMT coexpressed with murine PK-A C-subunit in E. coli strain JM101 (Saccharomyces cerevisiae, UniProt P14743, S2A).
T1 construct: metabolic labeling in cells
As to the kind of experiment: [3H]Fatty acid labeling of PK-A C-subunit produced in E. coli coexpressing yeast NMT1. The format is cell-based, S. cerevisiae. The settings on record: for incorporation of [3H]fatty acid into the C-subunit of PK-A: E. coli JM101 with NMT1 and wild type Cα plasmids after induction, SDS-PAGE and fluorography. Here is the method:
[^3 H]Fatty acid labeling of PK-A C-subunit produced in E. coli. Four ml cultures of the double transformants were shaken at 37° C. to an OD600 of 0.5 in LB broth+100 μg/ml ampicillin and 100 μg/ml kanamycin sulfate. Isopropyl-β-D-thiogalactopyranoside (IPTG) was then added to a final concentration of 1 mM to induce NMT production (see Results, below). When the cultures reached OD600 =1.0 (approximately 40 min later), nalidixic acid was added to a final concentration of 50 μg/ml to induce C-subunit production (see Results, below). [^3 H]Myristate (New England Nuclear; 39.3 Ci/mmol, 113 μCi added per ml of culture), [^3 H]palmitate (New England Nuclear; 30 Ci/mmol, 143 μCi/ml), or [^3 H]10-(propoxy)decanoate [Heuckeroth and Gordon, Proc. Natl. Acad. Sci. USA 86, 5262-5266 (1989)] (31.7 Ci/mmol, 800 μCi/ml) was added simultaneously with the nalidixic acid. Cultures were shaken for an additional 20 min at 37° C. and the cells were harvested by centrifugation. Lysates were prepared by boiling E. coli contained in the pellet for 10 min in 40 μL of a solution of 125 mM Tris, pH 8.0, 4% SDS, 20% glycerol, 10% β-mercaptoethanol, and 0.2M dithiothreitol. Cell debris was removed by centrifugation and 15 μl aliquots of the supernatant were subjected to SDS-PAGE [Laemmli, Nature 227, 680-685 (1970)] and subsequent fluorography using EN^3 HANCE (New England Nuclear) autoradiography enhancer. For Western blot analyses, 50 μg of reduced and denatured lysate proteins, prepared from unlabeled E. coli producing Gly^2 -C-subunit or Ala^2 -C-subunit, were separated by SDS-PAGE, electroblotted onto nitrocellulose [Burnette, Anal. Biochem. 112, 195-230 (1981)], and the filters probed with polyclonal, monospecific rabbit antisera raised against purified mouse C-subunit. Antigen-antibody complexes were visualized with ^125 I-protein A [Burnette, supra.].

Substrate in series [3]: CCCCCCCCCCCCCC(=O)SCCNC(=O)CCNC(=O)[C@H](O)C(C)(C)COP(=O)(O)OP(=O)(O)OC[C@H]1O[C@@H](n2cnc3c(N)ncnc32)[C@H](O)[C@@H]1OP(=O)(O)O
As to the kind of experiment: cells, lysate or membranes named. Conditions: other: fatty acyl-CoA substrate varied, 60 μM GNAAAARR

Substrate in series [4]: CCCOCCCCCCCCCC(=O)SCCNC(=O)CCNC(=O)[C@H](O)C(C)(C)COP(=O)(O)OP(=O)(O)OC[C@H]1O[C@@H](n2cnc3c(N)ncnc32)[C@H](O)[C@@H]1OP(=O)(O)O
In words: coupled in vitro assay for NMT activity, 45 kDa E. coli NMT. The format is biochemical, S. cerevisiae. Conditions: other: fatty acyl-CoA substrate varied, 60 μM GNAAAARR
The protocol:
(§1) In vitro assay system for NMT activity. To assess the peptide and acyl-CoA substrate specificities of E. coli-derived S. cerevisiae NMT, crude lysates or partially purified enzyme preparations were added to a coupled in vitro assay system [Towler and Glaser, Proc. Natl. Acad. Sci. USA 83, 2812-2816 (1986)]. The first step of this assay involves enzymatic conversion of radiolabeled fatty acids to their CoA thioesters by Pseudomonas acyl-CoA ligase. This ligase is largely nonspecific for fatty acid substrates [Shimizu et al., Anal. Biochem. 107, 193-198 (1980)]. Octapeptide substrates and NMT were then added to produce acylpeptides. Acylpeptides were purified from the reaction mixture by trichloroacetic acid/methanol precipitation and C18 reverse phase HPLC using a linear gradient of acetonitrile in water [Towler and Glaser, Proc. Natl. Acad. Sci. USA 83, 2812-2816 (1986)].
(§2) To obtain a homogenous preparation of the enzyme, E. coli-produced NMT was further purified by Mono S fast protein liquid chromatography (FPLC).
(§3) The peptide Km and Vmax values shown in the above Table I are averages obtained from 4- or 5-point Lineweaver-Burke plots. These plots were produced using data generated in at least three independent in vitro NMT assays. Varying concentrations of peptides were assayed with 15 μM myristate to determine peptide Km and Vmax values. […] Yeast NMT was from a 570 fold purified preparation [Towler et al., Proc. Natl. Acad. Sci. USA 84, 2708-2712 (1987)]. Synthetic peptide substrates are represented by their conventional one letter amino acid code. […] ND=not determined.

Substrate in series [5]: C[C@H](NC(=O)[C@H](C)NC(=O)[C@H](CC(N)=O)NC(=O)CN)C(=O)N[C@@H](CO)C(=O)N[C@@H](C)C(=O)N[C@@H](CCCNC(=N)N)C(=O)N[C@@H](CCCNC(=N)N)C(N)=O
The series is described as above. The class given is biochemical, S. cerevisiae. The settings on record: other: peptide substrate varied, 15 μM myristate. Here is the method: as §1, §2, §3

Substrate in series [6]: CCCCCCCCCCCCCCCC(=O)SCCNC(=O)CCNC(=O)[C@H](O)C(C)(C)COP(=O)(O)OP(=O)(O)OC[C@H]1O[C@@H](n2cnc3c(N)ncnc32)[C@H](O)[C@@H]1OP(=O)(O)O
The description is as above. The format is biochemical, S. cerevisiae. The settings on record: other: fatty acyl-CoA substrate varied, 60 μM GNAAAARR
Here is the method: as §1, §2, §3

Substrate in series [7]: C[C@H](NC(=O)[C@H](C)NC(=O)[C@H](C)NC(=O)[C@H](CC(N)=O)NC(=O)CN)C(=O)N[C@@H](C)C(=O)N[C@@H](CCCNC(=N)N)C(=O)N[C@@H](CCCNC(=N)N)C(N)=O
As to the kind of experiment: coupled in vitro assay for NMT activity, Total E. coli NMT. The format is biochemical, S. cerevisiae. Conditions: other: peptide substrate varied, 15 μM myristate. The protocol: as §1
(§4) The peptide Km and Vmax values shown in the above Table I are averages obtained from 4- or 5-point Lineweaver-Burke plots. These plots were produced using data generated in at least three independent in vitro NMT assays. Varying concentrations of peptides were assayed with 15 μM myristate to determine peptide Km and Vmax values. […] Yeast NMT was from a 570 fold purified preparation [Towler et al., Proc. Natl. Acad. Sci. USA 84, 2708-2712 (1987)]. […] ND=not determined.

Substrate in series [8]: C[C@H](NC(=O)[C@H](C)NC(=O)[C@H](CC(N)=O)NC(=O)CN)C(=O)N[C@@H](CO)C(=O)N[C@@H](C)C(=O)N[C@@H](CCCNC(=N)N)C(=O)N[C@@H](CCCNC(=N)N)C(N)=O
Described as above. The format is biochemical, S. cerevisiae. The settings on record: other: peptide substrate varied, 15 μM myristate. Here is the method: as §1, §4

With `CCCOCCCCCCCCCC(=O)O` [10-(Propoxy)decanoic acid], the hydrophobicity result in series [1] is “reduced hydrophobicity (comparable to decanoic acid)”. Also, the “effect on p60v-src distribution when incorporated in vivo” value in the series on p60^v-src is recorded as “significant redistribution of the protein from membrane to cytosolic fractions”.
`CCCCCCCCCCCCCC(=O)O` [[^3 H]Myristic acid, Myristic acid]: the “Pronase E digestion product of the labeled C-subunit” value in [2] (C18 reverse-phase HPLC) is “co-migrated with the chemically synthesized [^3 H]myristoylglycine standard”. In addition, the “incorporation of [3H]fatty acid into the C-subunit of PK-A” value in series [2] is on record as “efficiently linked to the Gly^1 residue of the C-subunit”; in [2] (listed as [^3 H]myristic acid), “a 40 kDa protein was metabolically labeled”. In addition, the “overall efficiency of NMT-catalyzed linkage of the myristoyl moiety to the C-subunit” value in [2] (in E. coli, estimated from Western blot, incorporated label and specific activity) is recorded as about 100%.

B1: 45 kDa E. coli NMT (NMT missing the NH2-terminal 39 residues) (Saccharomyces cerevisiae S288C) (protein)
chain: FWRTQPVKDFDEKVVEEGPIDKPKTPEDISDKPLPLLSSFEWCSIDVDNKKQLEDVFVLLNENYVEDRDAGFRFNYTKEFFNWALKSPGWKKDWHIGVRVKETQKLVAFISAIPVTLGVRGKQVPSVEINFLCVHKQLRSKRLTPVLIKEITRRVNKCDIWHALYTAGIVLPAPVSTCRYTHRPLNWKKLYEVDFTGLPDGHTEEDMIAENALPAKTKTAGLRKLKKEDIDQVFELFKRYQSRFELIQIFTKEEFEHNFIGEESLPLDKQVIFSYVVEQPDGKITDFFSFYSLPFTILNNTKYKDLGIGYLYYYATDADFQFKDRFDPKATKALKTRLCELIYDACILAKNANMDVFNALTSQDNTLFLDDLKFGPGDGFLNFYLFNYRAKPITGGLNPDNSNDIKRRSNVGVVML
notes: S2A lies in the removed part
One may read the Km as the substrate concentration at which the rate is half of its maximum. Turning to B1, the Km in [3] came out at 0.36 µM; in series [4], 1.2 µM; in series [5], 0.38 µM; in [6], 0.96 µM.

B2: E. coli-derived S. cerevisiae NMT (Total E. coli NMT) (Saccharomyces cerevisiae S288C; S2A) (protein)
chain: MAEEDKAKKLENLLKLLQLNNDDTSKFTQEQKKAMKDHKFWRTQPVKDFDEKVVEEGPIDKPKTPEDISDKPLPLLSSFEWCSIDVDNKKQLEDVFVLLNENYVEDRDAGFRFNYTKEFFNWALKSPGWKKDWHIGVRVKETQKLVAFISAIPVTLGVRGKQVPSVEINFLCVHKQLRSKRLTPVLIKEITRRVNKCDIWHALYTAGIVLPAPVSTCRYTHRPLNWKKLYEVDFTGLPDGHTEEDMIAENALPAKTKTAGLRKLKKEDIDQVFELFKRYQSRFELIQIFTKEEFEHNFIGEESLPLDKQVIFSYVVEQPDGKITDFFSFYSLPFTILNNTKYKDLGIGYLYYYATDADFQFKDRFDPKATKALKTRLCELIYDACILAKNANMDVFNALTSQDNTLFLDDLKFGPGDGFLNFYLFNYRAKPITGGLNPDNSNDIKRRSNVGVVML
notes: intact 53 kDa (codon 2 Ser to Ala from cloning) plus 45 kDa truncated form
Regarding B2, the Km is 65.8 µM in [7] and 0.103 µM in [8].

(Values after US5436138A, “Method for protein N-myristoylation” (Washington University, priority 1993, dated 1995).)
